Results as given in PubChem BioAssay (NCI).
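Assay format: 96-well plates, 48-hour exposure. TGI denotes the concentration required for complete inhibition of growth.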

Legend:
Assay in all cases: NCI tumour cell line growth inhibition, 48 h
786-0 renal = tested on: 786-0 renal
A549 NSCLC = tested on: A549 NSCLC
ACHN renal = tested on: ACHN renal
CAKI-1 renal = tested on: CAKI-1 renal
CCRF-CEM leukemia = tested on: CCRF-CEM leukemia
COLO 205 colon = tested on: COLO 205 colon
DLD-1 colon = tested on: DLD-1 colon
DMS 114 small cell lung = tested on: DMS 114 small cell lung
DMS 273 small cell lung = tested on: DMS 273 small cell lung
EKVX NSCLC = tested on: EKVX NSCLC
HCC-2998 colon = tested on: HCC-2998 colon
HCT-116 colon = tested on: HCT-116 colon
HCT-15 colon = tested on: HCT-15 colon
HL-60(TB) leukemia = tested on: HL-60(TB) leukemia
HOP-18 NSCLC = tested on: HOP-18 NSCLC
HOP-62 NSCLC = tested on: HOP-62 NSCLC
HOP-92 NSCLC = tested on: HOP-92 NSCLC
HT29 colon = tested on: HT29 colon
IGROV1 ovarian = tested on: IGROV1 ovarian
K-562 leukemia = tested on: K-562 leukemia
KM12 colon = tested on: KM12 colon
KM20L2 colon = tested on: KM20L2 colon
LXFL 529 NSCLC = tested on: LXFL 529 NSCLC
M14 melanoma = tested on: M14 melanoma
M19-MEL melanoma = tested on: M19-MEL melanoma
MALME-3M melanoma = tested on: MALME-3M melanoma
MOLT-4 leukemia = tested on: MOLT-4 leukemia
NCI-H226 lung = tested on: NCI-H226 lung
NCI-H23 lung = tested on: NCI-H23 lung
NCI-H460 lung = tested on: NCI-H460 lung
NCI-H522 lung = tested on: NCI-H522 lung
OVCAR-3 ovarian = tested on: OVCAR-3 ovarian
OVCAR-4 ovarian = tested on: OVCAR-4 ovarian
OVCAR-5 ovarian = tested on: OVCAR-5 ovarian
OVCAR-8 ovarian = tested on: OVCAR-8 ovarian
RPMI-8226 leukemia = tested on: RPMI-8226 leukemia
RXF 393 renal = tested on: RXF 393 renal
SF-268 CNS = tested on: SF-268 CNS
SF-295 CNS = tested on: SF-295 CNS
SF-539 CNS = tested on: SF-539 CNS
SK-MEL-2 melanoma = tested on: SK-MEL-2 melanoma
SK-MEL-28 melanoma = tested on: SK-MEL-28 melanoma
SK-MEL-5 melanoma = tested on: SK-MEL-5 melanoma
SK-OV-3 ovarian = tested on: SK-OV-3 ovarian
SN12C renal = tested on: SN12C renal
SNB-19 CNS = tested on: SNB-19 CNS
SNB-75 CNS = tested on: SNB-75 CNS
SNB-78 CNS = tested on: SNB-78 CNS
SR leukemia = tested on: SR leukemia
SW-620 colon = tested on: SW-620 colon
U251 CNS = tested on: U251 CNS
UACC-257 melanoma = tested on: UACC-257 melanoma
UACC-62 melanoma = tested on: UACC-62 melanoma
UO-31 renal = tested on: UO-31 renal
A498 renal = tested on: A498 renal
LOX IMVI melanoma = tested on: LOX IMVI melanoma
TK-10 renal = tested on: TK-10 renal

Measured: TGI

CCCOc1nc(N)c2cnn(C3CCCCO3)c2n1 (configuration not stated)
not listed: A498 renal | LOX IMVI melanoma | TK-10 renal
> 100 µM: all other assays above

O=C(Nc1c(O)[nH]c(=S)[nH]c1=O)c1ccccc1
not listed: DMS 273 small cell lung | EKVX NSCLC | HCC-2998 colon | RXF 393 renal
> 100 µM: all other assays above
